The target in test [1] is T1, DHS2^WT (Arabidopsis thaliana, UniProt Q00218). In words: DHS enzyme assay. Type of test: biochemical. The settings on record: for inhibition at 1000 µM: read-out: inhibition of DHS2; for IC50: recombinant DHS2^WT, varied effector concentrations; for inhibition of DHS2 activity: screening of AAAs and AAA-derived metabolites as potential inhibitors (Fig. 2D).
The target in test [2] is T1, DHS2^WT. The settings on record: shown previously; cited from earlier work.
The next test has as its system DHS2^A4. In words: DHS enzyme assay, DHS2 with the sotaA4 mutation. The settings on record: for inhibition of DHS2^A4: similar IC50 values to DHS2^WT; for inhibition of DHS2^A4 activity: concentration of up to 1 mM.
Test [3] has as its system DHS3 (DHS^WT isoform). In words: DHS enzyme assay. The settings on record: for inhibition of DHS3 WT activity: all DHS^WT isoforms. Type of test: biochemical, Arabidopsis thaliana.
In test [4] the test system is sota mutants (DHS enzymes). In words: DHS enzyme assay, sota mutant enzymes compared with corresponding WT enzymes. The settings on record: nearly all of the sota mutants; maximum increase. Type of test: biochemical, Arabidopsis thaliana.
The next test relates to DHS2^A11. As to the kind of experiment: DHS enzyme assay, DHS2 with the sotaA11 mutation. The settings on record: for change in IC50 versus corresponding WT enzyme: DHS2^A11, the weakest sota allele; for inhibition of DHS2^A11 activity: concentration of up to 1 mM.
Test [5] has as its target T2, DHS1^WT (Arabidopsis thaliana, UniProt P29976). As to the kind of experiment: DHS enzyme assay. Format: biochemical. The settings on record: for IC50: recombinant DHS1^WT, varied effector concentrations; for inhibition of DHS1 activity: screening of AAA-derived metabolites as potential inhibitors (Fig. 2D).
Test [6] deals with Arabidopsis plants (Col-0, sotaB4, sotaA4). In words: Plant growth on media containing the effector.
A further test deals with DHS1^B4. As to the kind of experiment: DHS enzyme assay, DHS1 with the sotaB4 mutation. Type of test: biochemical, Arabidopsis thaliana. The settings on record: comparable IC50 values to DHS1^WT.
Test [7] deals with T2, DHS1^WT. The settings on record: shown previously; cited from earlier work.
The test system of test [8] is DHS3 (DHS^WT isoform). The settings on record: shown previously; cited from earlier work.
In a further test the test system is DHS2^F1. As to the kind of experiment: DHS enzyme assay, DHS2 with the sotaF1 mutation. The settings on record: concentration of up to 1 mM.
Setting [9] is: ILA feeding, media with 0, 250, 500 or 1000 μM, 3-week-old plants, fresh weight.

Molecules are shown by their SMILES.

T2 sequence (P29976 49-525): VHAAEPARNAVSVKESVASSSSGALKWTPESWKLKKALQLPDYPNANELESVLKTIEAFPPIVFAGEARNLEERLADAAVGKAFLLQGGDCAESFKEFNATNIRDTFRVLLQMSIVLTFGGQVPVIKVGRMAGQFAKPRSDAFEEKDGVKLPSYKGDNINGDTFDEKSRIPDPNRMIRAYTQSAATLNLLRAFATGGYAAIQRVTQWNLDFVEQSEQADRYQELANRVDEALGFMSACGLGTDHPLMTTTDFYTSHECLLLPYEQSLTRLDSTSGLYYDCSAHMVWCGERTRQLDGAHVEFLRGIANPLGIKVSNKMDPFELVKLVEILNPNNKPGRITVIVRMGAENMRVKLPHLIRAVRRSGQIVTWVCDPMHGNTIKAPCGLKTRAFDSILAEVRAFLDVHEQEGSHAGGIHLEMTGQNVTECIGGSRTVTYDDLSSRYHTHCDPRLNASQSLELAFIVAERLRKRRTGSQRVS
T1 sequence (Q00218 34-507): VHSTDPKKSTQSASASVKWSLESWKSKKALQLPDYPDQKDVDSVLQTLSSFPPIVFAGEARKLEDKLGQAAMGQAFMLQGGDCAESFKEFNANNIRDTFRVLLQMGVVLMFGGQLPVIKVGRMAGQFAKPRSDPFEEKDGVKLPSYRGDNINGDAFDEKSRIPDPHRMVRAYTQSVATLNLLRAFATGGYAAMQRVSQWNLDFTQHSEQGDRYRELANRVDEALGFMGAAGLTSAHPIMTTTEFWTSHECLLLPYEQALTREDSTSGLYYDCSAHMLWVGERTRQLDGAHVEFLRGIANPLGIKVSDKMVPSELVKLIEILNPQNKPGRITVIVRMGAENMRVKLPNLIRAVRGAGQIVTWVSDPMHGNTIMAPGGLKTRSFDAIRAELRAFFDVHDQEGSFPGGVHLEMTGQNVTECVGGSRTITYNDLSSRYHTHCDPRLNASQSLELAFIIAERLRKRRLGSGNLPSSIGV

For `OCCc1ccc(O)cc1` [Tyrosol], the inhibition at 1000 µM on DHS2^WT [1] was around 30%.

As to `O=C(O)C1=C[C@@H](O)[C@@H](O)[C@H](O)C1` [shikimate], on DHS2^WT [2], the “inhibition of DHS2” value is “slightly inhibit”. Further, the “inhibition of DHS2^A4” value in the test with DHS2^A4 is listed as “still inhibited”.

On to `NCCc1ccc(O)cc1` [tyramine], for which the inhibition at 1000 µM on DHS2^WT [1] was around 30%.

With `N[C@@H](CC1(C(=O)O)C=CC(O)C=C1)C(=O)O` (stereo partly shown) [arogenate], the “inhibition of DHS2” value at DHS2^WT [2] is given as “slightly inhibit”. Further, the “inhibition of DHS2^A4” value in the test with DHS2^A4 is “still inhibited”.

In the case of `O=C(O)C(=O)Cc1ccc(O)cc1` [HPP, 4-Hydroxyphenylpyruvate], the “inhibition of DHS3 WT activity” value in the test with DHS3 (DHS^WT isoform) [3] is “effectively inhibited”. Further, in test [4], the “increase in IC50 versus corresponding WT enzymes” value is recorded as “up to 7 fold”. Further, in the test on DHS2^A11, the “change in IC50 versus corresponding WT enzyme” value is reported as “no significant change”.

With `O=C(O)C(=O)Cc1c[nH]c2ccccc12` [IPA, indole-3-pyruvate], at DHS1^WT [5], the half-inhibitory concentration (IC50) was 241 µM and the “inhibition of DHS1 activity” value was “inhibit”. For the same compound, on DHS2^WT [1], the IC50 was 58 µM and the “inhibition of DHS2 activity” value was “inhibit”. For the same compound, the “effect on plant growth” value in test [6] (independent of genotypes, even at very low concentration (<10 μM)) is recorded as “impaired plant growth”.

For the compound `O=C(O)/C=C/c1ccc(O)c(O)c1` [caffeate], the “inhibition of DHS1^B4” value in the test on DHS1^B4 was “still strongly inhibited”. Moreover, the “inhibition of DHS1” value on DHS1^WT [7] is reported as “strongly inhibit”. The “inhibition of DHS2” value at DHS2^WT [2] is given as “strongly inhibit”. In the test with DHS3 (DHS^WT isoform) [8], the “inhibition of DHS3” value is on record as “strongly inhibit”. Moreover, the “inhibition of DHS2^A4” value in the test with DHS2^A4 was “still inhibited”.

Take `C=C(O[C@@H]1C=C(C(=O)O)C=C[C@H]1O)C(=O)O` [chorismate]: the “inhibition of DHS1^B4” value in the test with DHS1^B4 is listed as “still strongly inhibited”. Moreover, the “inhibition of DHS1” value at DHS1^WT [7] is “strongly inhibit”. Besides, the “inhibition of DHS2” value on DHS2^WT [2] is on record as “strongly inhibit”. Moreover, the “inhibition of DHS3” value in the test with DHS3 (DHS^WT isoform) [8] was “strongly inhibit”. Further, in the test with DHS2^A4, the “inhibition of DHS2^A4” value was “still inhibited”.

Turning to `NCCc1c[nH]c2ccccc12` [tryptamine], the “inhibition of DHS1 activity” value at DHS1^WT [5] is “did not affect the activity”. Further, the “inhibition of DHS2 activity” value on DHS2^WT [1] was “slight reduction”.

For the compound `c1ccc2[nH]ccc2c1` [indole], the “inhibition of DHS1 activity” value at DHS1^WT [5] is “did not affect the activity”.

For `O=C(O)C(=O)Cc1ccccc1` [PPY, phenylpyruvate], at DHS1^WT [5], the “inhibition of DHS1 activity” value is “neither”.

For the compound `N[C@@H](Cc1ccc(O)cc1)C(=O)O` [Tyr, L-tyrosine], in the test with DHS2^A4, the “inhibition of DHS2^A4 activity” value was “not inhibited”. For the same compound, the “inhibition of DHS2^F1 activity” value in the test with DHS2^F1 was “not inhibited”. The “inhibition of DHS2^A11 activity” value in the test on DHS2^A11 is “not inhibited”.

As for `N[C@@H](Cc1c[nH]c2ccccc12)C(=O)O` [Trp, tryptophan], the “inhibition of DHS2” value at DHS2^WT [2] is given as “inhibit”. Also, the “inhibition of DHS2^A4 activity” value in the test with DHS2^A4 was “not inhibited”. In addition, the “inhibition of DHS2^F1 activity” value with DHS2^F1 was “not inhibited”. Moreover, in the test with DHS2^A11, the “inhibition of DHS2^A11 activity” value is listed as “not inhibited”.

On to `Nc1ccccc1C(=O)[O-].[Na+]` [Anthranilate], for which the “inhibition of DHS1 activity” value on DHS1^WT [5] is reported as “did not affect the activity”. In addition, at DHS2^WT [1], the “inhibition of DHS2 activity” value is on record as “slight reduction”.

As to `O=C(O)Cc1ccc(O)cc1` [4-hydroxyphenylacetate], the “inhibition of DHS1 activity” value on DHS1^WT [5] was “neither”.

As for `O=C(O)Cc1cc(O)ccc1O` [HGA, homogentisate], on DHS1^WT [5], the concentration for half-maximal inhibition (IC50) was in the range of 75 to 250 µM and the “inhibition of DHS1 activity” value was “effectively inhibited”. In addition, at DHS2^WT [1], the IC50 was 75 to 250 µM and the “inhibition of DHS2 activity” value is given as “effectively inhibited”. Also, the “inhibition of DHS3 WT activity” value with DHS3 (DHS^WT isoform) [3] is recorded as “effectively inhibited”. For the same compound, the IC50 on DHS3 (DHS^WT isoform) [3] (recombinant DHS3 WT, varied effector concentrations) fell in the range of 75 to 250 µM. Also, the “increase in IC50 versus corresponding WT enzymes” value in [4] was at most 12 fold. The “change in IC50 versus corresponding WT enzyme” value in the test on DHS2^A11 was “no significant change”.

Consider `O=C(O)C(=O)CC1(C(=O)O)C=CC(O)C=C1` (stereo not shown) [prephenate], for which the “inhibition of DHS2” value on DHS2^WT [2] was “slightly inhibit”. The “inhibition of DHS2^A4” value with DHS2^A4 is on record as “still inhibited”.

Turning to `O=C(O)C(O)Cc1c[nH]c2ccccc12` (stereo not shown) [ILA, Indole-3-lactate], the “inhibition of DHS1 activity” value at DHS1^WT [5] is “reduced the activity”. Also, the “inhibition of DHS2 activity” value at DHS2^WT [1] is “reduced the activity”. In test [6] (setting [9]), the “effect on growth of Col-0 WT plants” value is given as “growth inhibition” and the “growth inhibition in sotaB4 mutant plants versus Col-0” value was “significantly weakened”.

One may read the inhibition as the relative decrease from the control value, in per cent. As a reminder, the IC50 is the concentration at which inhibition is half-maximal.

The record behind these values is article PMC9176744 (Science Advances, 2022).
